ChEMBL document CHEMBL1136786, “2002 Medicinal Chemistry Division Award address: monoamine transporters and opioid receptors. Targets for addiction therapy” (J Med Chem, 2003)
Calls of active or inactive are those of the source. No cut-off for these calls is given here.

Columns and labels:
[1] = biological target: D(1A) dopamine receptor (Rattus norvegicus) (UniProt P18901); settings: Striatum
[2] = biological target: D(1A) dopamine receptor (Rattus norvegicus) (UniProt P18901); settings: Striatum; remark: listed apart in the source
Rattus norvegicus [3] = test: Time during which activity returned to baseline level in rat by intraperitoneal administration; format: functional
[4] = biological target: Sodium-dependent serotonin transporter (Rattus norvegicus, UniProt P31652); test: Inhibition of [3H]paroxetine binding at serotonin transporter was determined
Sequence of Sodium-dependent serotonin transporter (P31652 whole entry): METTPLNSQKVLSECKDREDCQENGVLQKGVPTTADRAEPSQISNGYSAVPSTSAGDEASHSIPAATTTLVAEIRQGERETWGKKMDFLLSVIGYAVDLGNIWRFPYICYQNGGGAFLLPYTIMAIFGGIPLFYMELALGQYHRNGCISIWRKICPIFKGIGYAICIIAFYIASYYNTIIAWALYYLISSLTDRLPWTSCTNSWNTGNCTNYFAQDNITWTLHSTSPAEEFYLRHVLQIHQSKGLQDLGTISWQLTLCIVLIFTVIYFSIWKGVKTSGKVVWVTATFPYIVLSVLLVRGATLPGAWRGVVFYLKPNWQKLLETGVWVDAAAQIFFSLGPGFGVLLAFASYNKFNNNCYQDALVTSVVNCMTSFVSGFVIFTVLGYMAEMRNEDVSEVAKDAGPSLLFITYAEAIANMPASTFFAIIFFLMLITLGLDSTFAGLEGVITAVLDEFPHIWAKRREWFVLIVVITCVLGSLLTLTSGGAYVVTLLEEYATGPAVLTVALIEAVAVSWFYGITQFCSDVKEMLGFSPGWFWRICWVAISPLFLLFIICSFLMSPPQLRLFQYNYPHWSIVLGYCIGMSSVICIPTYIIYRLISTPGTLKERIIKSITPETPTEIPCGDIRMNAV

Rattus norvegicus [5] = test: Time taken to produce maximal locomotor activity at 30 min period in rat by oral administration; format: functional
Rattus norvegicus [6] = test: Effective dose of compound required to produce maximal locomotor activity in cocaine-trained rat by oral administration; format: functional
Rattus norvegicus [7] = test: Time during which activity returned to baseline level in rat by oral administration; format: functional
Rattus norvegicus [8] = test: Time taken to produce maximal locomotor activity at 30 min period in rat by intraperitoneal administration; format: functional
Rattus norvegicus [9] = test: Maximal locomotor activity of compound compared as a percent of cocaine's effect in rat by oral administration; format: functional
[10] = biological target: Sodium-dependent dopamine transporter (Rattus norvegicus, UniProt P23977); test: Inhibition of [3H]WIN-35428 binding at dopamine transporter was determined
Sequence of Sodium-dependent dopamine transporter (P23977 whole entry): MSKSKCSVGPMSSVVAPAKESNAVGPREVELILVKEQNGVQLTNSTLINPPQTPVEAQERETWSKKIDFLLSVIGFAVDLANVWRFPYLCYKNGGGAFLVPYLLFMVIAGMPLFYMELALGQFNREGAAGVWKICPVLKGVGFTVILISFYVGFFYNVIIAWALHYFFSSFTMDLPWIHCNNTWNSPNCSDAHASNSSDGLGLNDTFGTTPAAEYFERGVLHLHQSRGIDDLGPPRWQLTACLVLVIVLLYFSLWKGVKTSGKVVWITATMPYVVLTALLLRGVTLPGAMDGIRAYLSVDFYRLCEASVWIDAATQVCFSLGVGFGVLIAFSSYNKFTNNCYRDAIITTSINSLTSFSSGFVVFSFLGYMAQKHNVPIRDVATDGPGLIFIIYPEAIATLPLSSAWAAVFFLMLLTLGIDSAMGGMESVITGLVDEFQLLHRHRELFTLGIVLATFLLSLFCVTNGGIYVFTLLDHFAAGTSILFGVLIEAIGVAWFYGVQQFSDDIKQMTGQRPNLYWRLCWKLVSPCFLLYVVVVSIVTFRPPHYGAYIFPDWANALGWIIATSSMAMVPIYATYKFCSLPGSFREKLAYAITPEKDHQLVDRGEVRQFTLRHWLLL

[11] = biological target: T1, Norepinephrine transporter (Rattus norvegicus, UniProt Q9WTR4); test: Affinity for norepinephrine transporter determined by [3H]nisoxetine displacement.
T1 sequence (Q9WTR4 whole entry): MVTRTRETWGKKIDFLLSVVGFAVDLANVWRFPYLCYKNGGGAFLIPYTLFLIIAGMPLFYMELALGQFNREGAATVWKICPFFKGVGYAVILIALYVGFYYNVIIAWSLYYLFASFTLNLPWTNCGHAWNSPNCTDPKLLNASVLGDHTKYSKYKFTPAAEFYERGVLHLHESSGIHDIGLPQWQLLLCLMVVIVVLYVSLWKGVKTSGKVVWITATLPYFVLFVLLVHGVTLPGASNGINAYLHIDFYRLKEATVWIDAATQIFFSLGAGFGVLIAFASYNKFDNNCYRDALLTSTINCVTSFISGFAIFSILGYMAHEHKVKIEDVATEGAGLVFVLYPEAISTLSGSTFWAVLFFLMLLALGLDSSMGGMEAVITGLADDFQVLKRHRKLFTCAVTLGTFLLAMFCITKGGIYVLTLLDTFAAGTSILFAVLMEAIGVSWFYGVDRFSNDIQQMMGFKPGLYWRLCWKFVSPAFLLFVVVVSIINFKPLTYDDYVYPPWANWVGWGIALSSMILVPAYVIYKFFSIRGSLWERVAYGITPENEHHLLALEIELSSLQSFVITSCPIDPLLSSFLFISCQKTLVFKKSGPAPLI

Rattus norvegicus [12] = test: Effective dose of compound required to produce maximal locomotor activity in rat by oral administration; format: functional
Rattus norvegicus [13] = test: Effective dose of compound required to produce maximal locomotor activity in rat by intraperitoneal administration; format: functional; settings: ip
Rattus norvegicus [14] = test: Maximal locomotor activity of compound compared as a percent of cocaine's effect in rat by intraperitoneal administration; format: functional
[15] = biological target: T1, Norepinephrine transporter; test: Inhibition of [3H]nisoxetine binding at norepinephrine transporter
Rattus norvegicus [16] = test: Effective dose of compound required to produce maximal locomotor activity in cocaine-trained rat by intraperitoneal administration; format: functional; settings: ip
[17] = biological target: Mu-type opioid receptor (Cavia porcellus) (UniProt P97266); test: Inhibition of [35S]GTP-gamma-S, binding in guines pig caudate stimulated by DAMGO for Opioid receptor mu 1; format: functional
Sequence of Mu-type opioid receptor (Cavia porcellus) (P97266 whole entry): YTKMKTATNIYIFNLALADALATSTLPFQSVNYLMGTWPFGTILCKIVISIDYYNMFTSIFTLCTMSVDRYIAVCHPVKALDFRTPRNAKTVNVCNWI

[18] = biological target: Kappa-type opioid receptor (Cavia porcellus) (UniProt P41144); test: Inhibition of [35S]GTP-gamma-S, binding in guines pig caudate stimulated by U69, 593 of Opioid receptor kappa 1; format: functional
Sequence of Kappa-type opioid receptor (Cavia porcellus) (P41144 whole entry): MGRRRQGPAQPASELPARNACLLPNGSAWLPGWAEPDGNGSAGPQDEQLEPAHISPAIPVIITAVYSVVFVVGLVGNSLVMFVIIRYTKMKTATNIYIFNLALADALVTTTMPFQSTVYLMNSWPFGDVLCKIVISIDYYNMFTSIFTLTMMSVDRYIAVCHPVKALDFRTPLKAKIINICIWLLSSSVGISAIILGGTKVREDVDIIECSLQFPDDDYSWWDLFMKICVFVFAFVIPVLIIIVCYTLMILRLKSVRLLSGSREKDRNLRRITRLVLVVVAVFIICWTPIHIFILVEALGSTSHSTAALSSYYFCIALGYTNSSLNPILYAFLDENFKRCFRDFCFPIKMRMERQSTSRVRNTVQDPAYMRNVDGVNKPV

[19] = biological target: Mu-type opioid receptor (Cavia porcellus) (UniProt P97266)
Description: Inhibition of [35S]GTP-gamma-S, binding in cloned Opioid receptor mu 1 stimulated by DAMGO

[20] = biological target: Kappa-type opioid receptor (Cavia porcellus) (UniProt P41144)
Description: Inhibition of [35S]GTP-gamma-S, binding in cloned Opioid receptor kappa 1 stimulated by U50,488

[21] = biological target: Delta-type opioid receptor (Homo sapiens) (UniProt P41143); settings: Cavia porcellus
Sequence of Delta-type opioid receptor (Homo sapiens) (P41143 whole entry): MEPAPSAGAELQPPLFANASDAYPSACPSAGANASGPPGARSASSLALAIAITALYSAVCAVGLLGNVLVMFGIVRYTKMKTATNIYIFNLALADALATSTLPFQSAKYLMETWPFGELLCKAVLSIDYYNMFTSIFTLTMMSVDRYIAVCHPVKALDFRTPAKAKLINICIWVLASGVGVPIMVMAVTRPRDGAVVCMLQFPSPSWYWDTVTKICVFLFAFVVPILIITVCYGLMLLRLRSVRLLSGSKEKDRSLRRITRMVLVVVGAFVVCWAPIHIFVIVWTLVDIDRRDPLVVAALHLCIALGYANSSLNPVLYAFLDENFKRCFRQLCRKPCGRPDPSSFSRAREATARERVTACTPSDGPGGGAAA
Description: Inhibition of [35S]GTP-gamma-S, binding in cloned Opioid receptor delta 1 stimulated by SNC-80

[22] = biological target: D(2) dopamine receptor (Rattus norvegicus) (UniProt P61169); settings: Nucleus accumbens
Sequence of D(2) dopamine receptor (Rattus norvegicus) (P61169 whole entry): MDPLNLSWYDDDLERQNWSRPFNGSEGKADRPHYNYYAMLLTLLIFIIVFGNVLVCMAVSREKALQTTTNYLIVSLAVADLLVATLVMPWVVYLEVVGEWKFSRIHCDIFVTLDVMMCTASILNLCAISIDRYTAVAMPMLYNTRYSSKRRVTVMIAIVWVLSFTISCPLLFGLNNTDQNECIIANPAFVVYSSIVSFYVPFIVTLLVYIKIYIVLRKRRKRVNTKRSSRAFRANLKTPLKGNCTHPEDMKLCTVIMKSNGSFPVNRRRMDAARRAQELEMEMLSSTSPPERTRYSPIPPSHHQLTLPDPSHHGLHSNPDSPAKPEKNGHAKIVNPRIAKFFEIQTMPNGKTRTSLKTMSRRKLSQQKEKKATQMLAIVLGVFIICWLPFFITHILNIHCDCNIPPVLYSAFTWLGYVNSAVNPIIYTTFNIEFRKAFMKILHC

[23] = biological target: D(2) dopamine receptor (Rattus norvegicus) (UniProt P61169)
[24] = biological target: Kappa-type opioid receptor (Cavia porcellus) (UniProt P41144); remark: listed apart in the source
Description: Inhibition of [35S]GTP-gamma-S, binding in cloned Opioid receptor kappa 1 stimulated by U69, 593

[25] = biological target: Kappa-type opioid receptor (Cavia porcellus) (UniProt P41144); remark: listed apart in the source
Description: Inhibition of [35S]GTP-gamma-S, binding in guines pig caudate stimulated by U50, 488 of Opioid receptor kappa 1

[26] = biological target: Delta-type opioid receptor (Homo sapiens) (UniProt P41143); settings: Cavia porcellus; remark: listed apart in the source
Description: Inhibition of [35S]GTP-gamma-S, binding in guines pig caudate stimulated by SNC-80 to Opioid receptor delta 1

Mu-type opioid receptor = Mu-type opioid receptor (Cavia porcellus, UniProt P97266); test: Inhibition of binding of [3H]DAMGO to Opioid receptor mu 1 in guinea pig membranes; format: cell membranes
Sequence of Mu-type opioid receptor (P97266 whole entry): as the sequence (P97266 whole entry) above

Mus musculus [27] = organism: Mus musculus; test: Antagonistic activity of nicotine-induced hypothermia in mice was determined; format: functional
Mus musculus [28] = organism: Mus musculus; test: Antagonistic activity of nicotine-induced analgesia in mice was determined; format: functional

Sequence of D(1A) dopamine receptor (Rattus norvegicus) (P18901 whole entry): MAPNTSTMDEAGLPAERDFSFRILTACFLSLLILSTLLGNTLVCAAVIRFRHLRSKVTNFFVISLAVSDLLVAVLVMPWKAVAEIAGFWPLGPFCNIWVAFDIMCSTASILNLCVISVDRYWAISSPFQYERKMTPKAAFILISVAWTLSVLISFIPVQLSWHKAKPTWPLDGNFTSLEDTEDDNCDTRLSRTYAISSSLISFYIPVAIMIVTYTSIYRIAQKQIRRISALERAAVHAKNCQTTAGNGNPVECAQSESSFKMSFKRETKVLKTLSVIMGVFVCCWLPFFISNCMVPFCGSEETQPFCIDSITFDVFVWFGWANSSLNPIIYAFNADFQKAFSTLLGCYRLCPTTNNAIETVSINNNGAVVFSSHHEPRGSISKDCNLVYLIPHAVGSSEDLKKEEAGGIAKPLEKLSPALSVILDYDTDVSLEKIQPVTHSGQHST

Structure (SMILES)	IC50 [4]	Ki [4]	IC50 [10]	Ki [11]	IC50 [15]	other results
Oc1cc2c(cc1O)C(c1ccccc1)CNCC2 (stereo not drawn)						NC [1]: inactive; NC [2]: inactive
Cc1ccc(-c2cc(C3C4CC[C@H](C[C@@H]3c3ccc(Cl)cc3)N4C)on2)cc1 (stereo partly drawn)	5740 nM	522 nM	4.09 nM	1030 nM	1710 nM	Time (Rattus norvegicus [3]): >4 h; Peak time (Rattus norvegicus [5]): 60 min; ED50 (Rattus norvegicus [6]): 3.54 mg/kg; Time (Rattus norvegicus [7]): >4 h; Peak time (Rattus norvegicus [8]): 70 min; Cocaine (Rattus norvegicus [9]): 77%; ED50 (Rattus norvegicus [12]): 14.4 mg/kg; ED50 (Rattus norvegicus [13]): 4.8 mg/kg; Maximal locomotor activity (% of cocaine) (Rattus norvegicus [14]): 71%; ED50 (Rattus norvegicus [16]): 5.6 mg/kg
COC(=O)C1C2CC[C@H](C[C@@H]1c1ccc(I)cc1)N2C (stereo partly drawn)		0.38 nM		21.6 nM		
Cc1ccc([C@H]2C[C@H]3CCC(C2c2ccccc2)N3C)cc1 (stereo partly drawn)	11000 nM	1000 nM	1.96 nM	289 nM	480 nM	
C[C@H]1C2CCCC1(c1cccc(O)c1)CCN2CCc1ccccc1 (stereo partly drawn)						Ke [17]: 0.338 nM; Ke [18]: 1.34 nM
CC(C)[C@@H](CN1CC[C@@](C)(c2cccc(O)c2)[C@@H](C)C1)NC(=O)[C@H]1Cc2ccc(O)cc2CN1						Ke [19]: 3.42 nM; Ke [20]: 6 pM; Ke [21]: > 100 nM
CC1CN(C)C2CCCC1(c1cccc(O)c1)C2 (stereo not drawn)						Ke [17]: 25.2 nM; Ke [18]: 76.4 nM
CN(C)C(=O)C1C2CC[C@H](C[C@@H]1c1ccc(Cl)cc1)N2C (stereo partly drawn)	1080 nM	98 nM	1.38 nM	566 nM	940 nM	
CN1C2CC[C@@H]1C[C@H](c1ccc(Cl)cc1)C2C(=O)N1CCCC1 (stereo partly drawn)	12400 nM	1130 nM	1.38 nM	2370 nM	3940 nM	
CN1C2CC[C@@H]1C[C@H](c1ccc(Cl)cc1)C2C(=O)OCCc1ccc(N)cc1 (stereo partly drawn)			2.16 nM			
Cc1ccc([C@H]2C[C@H]3CCC(C2C(=O)OC(C)C)N3C)cc1 (stereo partly drawn)	6090 nM	554 nM	6.45 nM	1160 nM	1930 nM	Time (Rattus norvegicus [3]): >4 h; Peak time (Rattus norvegicus [5]): 100 min; ED50 (Rattus norvegicus [6]): 5.7 mg/kg; Time (Rattus norvegicus [7]): >4 h; Peak time (Rattus norvegicus [8]): 10 min; Cocaine (Rattus norvegicus [9]): 116%; ED50 (Rattus norvegicus [12]): 4.7 mg/kg; ED50 (Rattus norvegicus [13]): 3.1 mg/kg; Maximal locomotor activity (% of cocaine) (Rattus norvegicus [14]): 103%; ED50 (Rattus norvegicus [16]): 4.4 mg/kg
C=C(C)c1ccc([C@H]2C[C@H]3CCC(N3)C2C(=O)OC)cc1 (stereo partly drawn)	0.6 nM	0.055 nM	23 nM	87 nM	144 nM	
COC(=O)[C@@H]1C2CC[C@H](C[C@@H]1c1ccccc1)N2C.Cl				554 nM		Time (Rattus norvegicus [3]): 2 h; Peak time (Rattus norvegicus [8]): 10 min; ED50 (Rattus norvegicus [13]): 2.1 mg/kg; Maximal locomotor activity (% of cocaine) (Rattus norvegicus [14]): 146%; ED50 (Rattus norvegicus [16]): 0.35 mg/kg
CN1CCc2cc(Cl)c(O)cc2[C@@H](c2ccccc2)C1						NC [1]: inactive; NC [2]: inactive
COC(=O)C1C2CC[C@H](C[C@H]1c1ccc(Br)cc1)N2C (stereo partly drawn)	10.6 nM	0.96 nM				
CCc1ccc([C@H]2C[C@H]3CCC(N3)C2C(=O)OC)cc1I (stereo partly drawn)	0.69 nM	0.063 nM	329 nM	89 nM	148 nM	
COC(=O)C1C2CC[C@H](C[C@@H]1c1ccc(C)c(F)c1)N2 (stereo partly drawn)	97.4 nM	23.8 nM	9 nM	0.43 nM	0.86 nM	

Structure (SMILES)	IC50 [4]	Ki [4]	IC50 [10]	Ki [11]	IC50 [15]	other results
CCc1cc(Cl)c(OC)c(C(=O)NC[C@@H]2CCCN2CC)c1O						NC [22]: inactive; NC [23]: inactive
CC(C)[C@@H](CN1CC[C@@](C)(c2cccc(O)c2)[C@@H](C)C1)NC(=O)CCc1ccc(O)cc1						Ke [17]: 7.25 nM; Ke [18]: 4.7 nM
COC(=O)C1C2CC[C@H](C[C@@H]1c1cccc(I)c1)N2 (stereo partly drawn)	39 nM	3.6 nM	26 nM	964 nM	1600 nM	
CCc1ccc([C@H]2C[C@H]3CCC(N3)C2C(=O)OC)cc1 (stereo partly drawn)	8.1 nM	0.74 nM	50 nM	74 nM	122 nM	
COC(=O)C1C2CC[C@H](C[C@@H]1c1ccc(C)cc1)N2 (stereo partly drawn)	500 nM	46 nM	33.6 nM	5.4 nM	9 nM	
Oc1ccc2c3c1O[C@H]1c4[nH]c5c(c4C[C@@]4(O)[C@@H](C2)N(CC2CC2)CC[C@]314)C[C@@]1(O)[C@H]2Cc3ccc(O)c4c3[C@@]1(CCN2CC1CC1)[C@H]5O4						Ke [17]: 16.8 nM; Ke [19]: 15.8 nM; Ke [24]: 0.07 nM; Ke [25]: 0.038 nM
C[C@H]1CN(CC[C@H](O)C2CCCCC2)CC[C@@]1(C)c1cccc(O)c1						Ke [17]: 0.021 nM; Ke [26]: 0.312 nM; Ki (Mu-type opioid receptor): 0.32 nM; Ke [18]: 0.33 nM
COC(=O)C1C2CC[C@H](C[C@H]1c1ccc(Cl)c(Cl)c1)N2C (stereo partly drawn)	3.13 nM	0.28 nM		10.8 nM	18 nM	
CN1C2CC[C@@H]1C[C@H](c1ccc(Cl)cc1)C2c1cc(-c2ccccc2)no1 (stereo partly drawn)		220 nM		304 nM		
C[C@H]1CN(C/C=C/c2ccccc2)CC[C@@]1(C)c1cccc(O)c1						Ke [17]: 0.039 nM; Ki (Mu-type opioid receptor): 0.74 nM; Ke [18]: 1.04 nM
C[C@H]1CN(C/C=C/c2ccccc2Cl)CC[C@@]1(C)c1cccc(O)c1						Ke [17]: 0.026 nM; Ki (Mu-type opioid receptor): 1.12 nM; Ke [18]: 0.567 nM
CC(NC(C)(C)C)C(=O)c1cccc(Cl)c1 (stereo not drawn) [BUPROPION]						AD50 (Mus musculus [27]): 16 mM/kg; AD50 (Mus musculus [28]): 9 mM/kg
CC1C2CCCC1(c1cccc(O)c1)CCN2C (stereo not drawn)						Ke [17]: 21.2 nM; Ke [18]: 105 nM
CN1[C@H]2CC[C@@H]1[C@@H](C(=O)N1CCCC1)[C@@H](c1ccc(I)cc1)C2		157 nM		596 nM		
CN1C2CCC1C(C(=O)Oc1ccccc1)C(c1ccc(Cl)cc1)C2 (stereo not drawn)		214 nM		1780 nM		Time (Rattus norvegicus [3]): >4 h; Peak time (Rattus norvegicus [8]): 30 min; ED50 (Rattus norvegicus [13]): 0.93 mg/kg; Maximal locomotor activity (% of cocaine) (Rattus norvegicus [14]): 128%; ED50 (Rattus norvegicus [16]): 2.28 mg/kg
COC(=O)C1C2CC[C@H](C[C@@H]1c1ccc(Cl)cc1)N2C (stereo partly drawn)		4.1 nM				
Cc1ccccc1/C=C/CN1CC[C@@](C)(c2cccc(O)c2)[C@@H](C)C1						Ke [17]: 0.013 nM; Ki (Mu-type opioid receptor): 0.86 nM; Ke [18]: 0.17 nM
